pIC50: −log10 of the molar value. Some results are limits rather than exact numbers.

The record followed here is US20240391926A1, “SPIROINDOLINONE COMPOUNDS AS Kv1.3 POTASSIUM SHAKER CHANNEL BLOCKERS” (D.E. Shaw Research, LLC, priority 2021, published 2024).

Experiment [1] addresses T1, Kv1.3 potassium channel (Homo sapiens, UniProt P22001).
T1 construct: expressed in transfected cells
Nature of the experiment: Kv1.3 potassium channel blocker activity, automated whole-cell patch clamp (Patchliner) in CHO-K1 cells stably expressing Kv1.3. The format is cell-based. The conditions noted are these: 30 nM-100 μM. An outline of the steps: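 Whole-cell automated patch clamp in CHO-K1 cells, pH 7.4 external/7.2 internal; 100 ms steps from −90 to +40 mV at 0.1 Hz, 20-pulse trains. Cumulative 30 nM–100 μM on one cell, ≤10 s per concentration; last-pulse current normalized to control, IC50 from Hill fit.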

Experiment [2] deals with T2, hERG channel (Homo sapiens, UniProt Q12809).
T2 construct: expressed in transfected cells
Put plainly: hERG electrophysiology, automated whole-cell patch clamp (Patchliner) in CHO-K1 cells stably expressing hERG. The conditions noted are these: 30 nM-100 μM. Format: cell-based. How it is done:
This assay is used to evaluate the disclosed compounds' inhibition activities against the hERG channel.
CHO-K1 cells stably expressing hERG were grown in Ham's F-12 Medium with glutamine containing 10% heat-inactivated FBS, 1% penicillin/streptomycin, hygromycin (100 μg/ml) and G418 (100 μg/ml). Cells were grown in culture flasks at 37° C. in a 5% CO2-humidified incubator.
The cells were bathed in an extracellular solution containing 140 mM NaCl, 4 mM KCl, 2 mM CaCl2), 1 mM MgCl2, 5 mM Glucose, 10 mM HEPES; pH adjusted to 7.4 with NaOH; 295-305 mOsm. The internal solution contained 50 mM KCl, 10 mM NaCl, 60 mM KF, 20 mM EGTA, 10 mM HEPES; pH adjusted to 7.2 with KOH; 285 mOsm. All compounds were dissolved in DMSO at 30 mM. Compound stock solutions were freshly diluted with external solution to concentrations of 30 nM, 100 nM, 300 nM, 1 μM, 3 μM, 10 μM, 30 μM and 100 μM. The highest content of DMSO (0.3%) was present in 100 μM.
The voltage protocol (see Table B) was designed to simulate voltage changes during a cardiac action potential with a 300 ms depolarization to +20 mV (analogous to the plateau phase of the cardiac action potential), a repolarization for 300 ms to −50 mV (inducing a tail current) and a final step to the holding potential of −80 mV. The pulse frequency was 0.3 Hz. Control (compound-free) and compound pulse trains for each compound concentration applied contained 70 pulses.
Whole-cell current recordings and compound application were enabled by means of an automated patch clamp platform Patchliner (Nanion). EPC 10 patch clamp amplifier (HEKA) along with Patchmaster software (HEKA Elektronik Dr. Schulze GmbH) was used for data acquisition. Data were sampled at 10 kHz without filtering. Increasing compound concentrations were applied consecutively to the same cell without washouts in between.
AUC and PEAK values were obtained with Patchmaster (HEKA Elektronik Dr. Schulze GmbH). To determine IC50 the last single pulse in the pulse train corresponding to a given compound concentration was used. Obtained AUC and PEAK values in the presence of compound were normalized to control values in the absence of compound. Using Origin (OridinLab), IC50 was derived from data fit to Hill equation: Icompound/Icontrol=(100−A)/(1+([compound]/IC50)nH)+A, where IC50 is the concentration at which current inhibition is half-maximal, [compound] is the applied compound concentration, A is the fraction of current that is not blocked and nH is the Hill coefficient.

T1 sequence (P22001 whole entry): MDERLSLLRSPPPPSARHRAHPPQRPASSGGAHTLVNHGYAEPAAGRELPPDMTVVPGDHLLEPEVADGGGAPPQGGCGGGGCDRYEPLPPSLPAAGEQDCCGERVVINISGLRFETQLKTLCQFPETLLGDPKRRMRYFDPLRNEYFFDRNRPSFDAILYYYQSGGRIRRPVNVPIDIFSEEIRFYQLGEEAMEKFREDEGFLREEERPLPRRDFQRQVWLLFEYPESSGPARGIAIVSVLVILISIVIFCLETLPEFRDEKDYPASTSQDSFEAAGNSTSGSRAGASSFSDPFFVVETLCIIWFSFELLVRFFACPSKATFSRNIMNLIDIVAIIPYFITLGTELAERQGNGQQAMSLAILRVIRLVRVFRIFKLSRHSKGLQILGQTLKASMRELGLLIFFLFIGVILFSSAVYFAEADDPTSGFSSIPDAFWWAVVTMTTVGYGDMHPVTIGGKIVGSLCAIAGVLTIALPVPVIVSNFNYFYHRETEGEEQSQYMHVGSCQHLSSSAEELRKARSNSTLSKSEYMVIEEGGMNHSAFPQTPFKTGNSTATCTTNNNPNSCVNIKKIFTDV
T2 sequence (Q12809 whole entry): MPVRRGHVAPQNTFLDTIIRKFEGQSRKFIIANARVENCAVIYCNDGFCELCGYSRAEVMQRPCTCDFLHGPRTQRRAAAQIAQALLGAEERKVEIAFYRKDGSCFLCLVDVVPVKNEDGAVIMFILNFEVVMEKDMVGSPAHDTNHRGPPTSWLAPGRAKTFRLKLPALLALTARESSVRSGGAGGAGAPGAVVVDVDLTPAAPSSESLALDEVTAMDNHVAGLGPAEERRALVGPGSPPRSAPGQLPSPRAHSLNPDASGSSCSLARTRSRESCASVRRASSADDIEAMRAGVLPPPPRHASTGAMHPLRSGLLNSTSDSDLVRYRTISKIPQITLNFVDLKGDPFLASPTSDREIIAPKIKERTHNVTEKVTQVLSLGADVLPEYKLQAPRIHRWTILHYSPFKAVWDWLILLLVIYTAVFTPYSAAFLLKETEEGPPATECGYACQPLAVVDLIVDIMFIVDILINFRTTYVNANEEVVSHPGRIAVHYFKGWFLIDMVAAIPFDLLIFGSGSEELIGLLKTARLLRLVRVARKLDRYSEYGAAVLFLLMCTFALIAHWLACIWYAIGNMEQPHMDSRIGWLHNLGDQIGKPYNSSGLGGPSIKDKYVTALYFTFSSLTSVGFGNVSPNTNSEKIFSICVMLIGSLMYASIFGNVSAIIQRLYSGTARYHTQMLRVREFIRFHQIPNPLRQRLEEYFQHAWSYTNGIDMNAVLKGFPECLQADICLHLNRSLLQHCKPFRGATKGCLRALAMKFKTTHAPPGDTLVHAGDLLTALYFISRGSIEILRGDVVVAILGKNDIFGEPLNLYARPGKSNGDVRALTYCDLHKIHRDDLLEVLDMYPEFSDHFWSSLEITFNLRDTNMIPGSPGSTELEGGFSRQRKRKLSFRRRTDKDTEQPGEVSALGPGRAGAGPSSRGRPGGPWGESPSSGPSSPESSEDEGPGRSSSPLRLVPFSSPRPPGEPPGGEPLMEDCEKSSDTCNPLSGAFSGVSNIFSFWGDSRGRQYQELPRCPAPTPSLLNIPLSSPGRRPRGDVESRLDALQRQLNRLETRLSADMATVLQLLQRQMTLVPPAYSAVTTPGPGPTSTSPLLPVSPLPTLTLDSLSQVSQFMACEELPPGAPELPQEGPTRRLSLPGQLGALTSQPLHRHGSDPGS

Regarding `O=C([C@@H]1CCNC1)N1CC[C@]2(C1)C(=O)Nc1cc(Cl)c(Cl)cc12` [Compound 14, (S)-5,6-dichloro-1′-((R)-pyrrolidine-3-carbonyl)spiro[indoline-3,3′-pyrrolidin]-2-one], the negative-log IC50 (pIC50) in experiment [1] was over 6.52; in experiment [2] it was under 4.00.
Consider `O=C([C@@H]1C[C@@H](O)[C@@H](O)C1)N1CC[C@]2(C1)C(=O)Nc1cc(Cl)c(Cl)cc12` [Compound 101, (3S)-5,6-dichloro-1′-[(1S,3R,4S)-3,4-dihydroxycyclopentanecarbonyl]-1H-spiro[indole-3,3′-pyrrolidin]-2-one], for which the pIC50 in experiment [1] was over 6.52; in experiment [2] it was under 4.00.
Taken in the same sequence, the figures for `O=C1Nc2cc(Cl)c(Cl)cc2[C@]12CCN(C(=O)[C@H]1C[C@@](O)(CO)C1)C2` [Compound 94, (3S)-5,6-dichloro-1′-[(1s,3s)-3-hydroxy-3-(hydroxymethyl)cyclobutanecarbonyl]-1H-spiro[indole-3,3′-pyrrolidin]-2-one] were over 6.00 and under 4.00.
With `O=C(C1C[C@@H](O)[C@H](O)C1)N1CC[C@]2(C1)C(=O)Nc1cc(Cl)c(Cl)cc12` (single isomer, unassigned; isomer 1) [Compound 105], the pIC50 in experiment [1] is over 6.52; in experiment [2], under 4.00.
For `O=C(CO)N1CC[C@]2(C1)C(=O)Nc1cc(Cl)c(Cl)cc12` [Compound 6, (S)-5,6-dichloro-1′-(2-hydroxyacetyl)spiro[indoline-3,3′-pyrrolidin]-2-one], the results for the negative-log IC50 (pIC50) in experiment [1] and in experiment [2] were over 6.00 and under 4.00, respectively.
Taken in the same sequence, the figures for `COC[C@@H]1C[C@H](C(=O)N2CC[C@]3(C2)C(=O)Nc2cc(Cl)c(Cl)cc23)CN1` [Compound 109, (3S)-5,6-dichloro-1′-[(3S,5S)-5-(methoxymethyl)pyrrolidine-3-carbonyl]-1H-spiro[indole-3,3′-pyrrolidin]-2-one] were over 6.00 and under 4.52.
Taken in the same sequence, the figures for `O=C([C@H]1C[C@@H](O)[C@@H](O)C1)N1CC[C@]2(C1)C(=O)Nc1cc(Cl)c(Cl)cc12` [Compound 102, (3S)-5,6-dichloro-1′-[(1R,3R,43)-3,4-dihydroxycyclopentanecarbonyl]-1H-spiro[indole-3,3′-pyrrolidin]-2-one] were over 6.00 and under 4.00.
`O=C([C@H]1CC[C@H](O)C1)N1CC[C@]2(C1)C(=O)Nc1cc(Cl)c(Cl)cc12` (single isomer, unassigned; isomer 1) [Compound 63]: the values for the pIC50 in experiment [1] and in experiment [2] were over 6.00 and under 4.52, respectively.
Turning to `O=C([C@H]1CCNC1)N1CC[C@]2(C1)C(=O)Nc1cc(Cl)c(Cl)cc12` [Compound 15, (S)-5,6-dichloro-1′-((S)-pyrrolidine-3-carbonyl)spiro[indoline-3,3′-pyrrolidin]-2-one], the pIC50 is over 6.00 in experiment [1] and under 4.00 in experiment [2].
